Read-outs that look alike come from different tables or passages of the source.
Tests used:
mGluR5 = mGluR5 (Rattus norvegicus, UniProt P31424); experiment: IC50 column under 'Biological Activity' (assay not identified in the shown text; not the binding Ki)
rat mGluR5 receptor = target: T1, rat mGluR5 receptor (Rattus norvegicus, UniProt P31424); experiment: [3H]-MPEP displacement binding assay, HEK-293 cell membranes expressing rat mGluR5; settings: for Ki: read-out: Median Ki
T1 construct: expressed in transfected cells; host or cells: HEK-293
T1 sequence (P31424 21-1203): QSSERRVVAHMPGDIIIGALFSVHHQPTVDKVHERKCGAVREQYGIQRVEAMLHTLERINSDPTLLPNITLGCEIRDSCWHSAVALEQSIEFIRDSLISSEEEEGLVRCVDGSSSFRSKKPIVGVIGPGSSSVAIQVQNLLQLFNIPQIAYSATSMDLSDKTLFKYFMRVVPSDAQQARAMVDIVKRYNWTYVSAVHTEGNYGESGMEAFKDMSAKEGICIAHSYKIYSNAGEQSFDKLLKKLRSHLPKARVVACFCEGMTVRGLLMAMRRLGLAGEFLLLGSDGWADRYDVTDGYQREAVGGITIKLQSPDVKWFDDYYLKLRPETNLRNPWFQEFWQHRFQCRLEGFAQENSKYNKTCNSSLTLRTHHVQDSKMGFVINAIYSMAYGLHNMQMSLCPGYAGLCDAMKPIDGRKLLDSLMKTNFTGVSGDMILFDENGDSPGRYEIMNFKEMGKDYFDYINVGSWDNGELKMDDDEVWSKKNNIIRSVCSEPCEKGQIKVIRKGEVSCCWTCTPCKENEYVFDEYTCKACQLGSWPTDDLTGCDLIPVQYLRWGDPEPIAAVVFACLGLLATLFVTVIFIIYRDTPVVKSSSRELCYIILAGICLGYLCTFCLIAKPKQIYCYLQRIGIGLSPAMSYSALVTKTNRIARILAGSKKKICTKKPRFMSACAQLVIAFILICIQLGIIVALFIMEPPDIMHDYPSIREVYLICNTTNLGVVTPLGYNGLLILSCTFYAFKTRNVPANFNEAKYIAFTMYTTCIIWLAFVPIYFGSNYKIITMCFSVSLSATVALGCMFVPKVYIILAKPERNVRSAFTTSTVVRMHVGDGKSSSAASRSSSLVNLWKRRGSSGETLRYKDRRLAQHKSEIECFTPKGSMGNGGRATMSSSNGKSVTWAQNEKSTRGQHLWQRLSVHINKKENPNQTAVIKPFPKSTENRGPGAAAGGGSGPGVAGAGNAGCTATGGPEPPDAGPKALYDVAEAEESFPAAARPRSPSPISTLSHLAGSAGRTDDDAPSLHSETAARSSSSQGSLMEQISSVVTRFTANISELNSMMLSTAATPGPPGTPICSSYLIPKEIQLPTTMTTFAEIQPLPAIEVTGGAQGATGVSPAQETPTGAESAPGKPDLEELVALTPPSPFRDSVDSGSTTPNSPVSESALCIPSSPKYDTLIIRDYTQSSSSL
Method in brief: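 Membranes from HEK-293 cells expressing rat mGluR5 (12-25 μg protein), incubated 60 min at room temperature with 4 nM [3H]-MPEP in 50 mM Tris pH 7.5, then filtered. Nonspecific binding defined with 10 μM MPEP.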

[1] = [3H]-MPEP displacement, rat mGluR5
[2] = [3H]-MPEP displacement, rat mGluR5, no Ki given, read-out: IC50 (printed in the Median Ki column instead of a Ki)
[3] = bound printed in place of a Ki, read-out: IC50 (printed in the Median Ki column)
[4] = [3H]-MPEP displacement, rat mGluR5 membranes

mGluR5, sequence (P31424 21-1203): as above

SMILES: COc1ccc(C(=O)N2CCN(c3ccc(C(F)(F)F)cn3)CC2)cc1C#Cc1ccccn1 [Compound 183, 1-[4-methoxy-3-(pyridin-2-ylethynyl)benzoyl]-4-[5-(trifluoromethyl)pyridin-2-yl]piperazine]
- IC50 (mGluR5): 0.066 µM
- Ki (rat mGluR5 receptor; [1]): 0.041 µM

SMILES: COc1ccc(C(=O)N2CCN(c3ncccc3C(F)(F)F)CC2)cc1C#Cc1ccccn1 [Compound 184, 1-[4-methoxy-3-(pyridin-2-ylethynyl)benzoyl]-4-[3-(trifluoromethyl)pyridin-2-yl]piperazine]
- IC50 (mGluR5): 0.117 µM
- Ki (rat mGluR5 receptor; [1]): 0.078 µM

SMILES: COc1ccc(C(=O)N2CCN(c3cccc(C)n3)CC2)cc1C#Cc1ccccn1 [Compound 198, 1-[4-methoxy-3-(pyridin-2-ylethynyl)benzoyl]-4-(6-methylpyridin-2-yl)piperazine]
- IC50 (mGluR5): 0.034 µM

SMILES: COc1ccc(C(=O)N2CCN(c3ncccc3Cl)CC2)cc1C#Cc1ccccc1 [Compound 341, 1-(3-chloropyridin-2-yl)-4-[4-methoxy-3-(phenylethynyl)benzoyl]piperazine]
- Ki (rat mGluR5 receptor; [1]): 1.13 µM

SMILES: COc1ccc(C(=O)N2CCN(c3ncccc3Cl)CC2)cc1C#Cc1ccccc1[N+](=O)[O-] [Compound 342, 1-(3-chloropyridin-2-yl)-4-{4-methoxy-3-[(2-nitrophenyl)ethynyl]benzoyl}piperazine]
- IC50 (rat mGluR5 receptor; [2]): > 10 µM

SMILES: COc1ccc(C(=O)N2CCN(c3ncccc3Cl)CC2)cc1C#Cc1cccc(OCc2ccccc2)c1 [Compound 343, 1-(3-{[3-(benzyloxy)phenyl]ethynyl}-4-methoxybenzoyl)-4-(3-chloropyridin-2-yl)piperazine]
- IC50 (rat mGluR5 receptor; [2]): > 10 µM

SMILES: COc1ccc(C(=O)N2CCN(c3ncccc3Cl)CC2)cc1C#Cc1cccc(OC(F)(F)F)c1 [Compound 344, 1-(3-chloropyridin-2-yl)-4-(4-methoxy-3-{[3-(trifluoromethoxy)phenyl]ethynyl}benzoyl)piperazine]
- IC50 (rat mGluR5 receptor; [2]): > 10 µM

SMILES: COc1ccc(C(=O)N2CCN(c3ncccc3Cl)CC2)cc1C#Cc1ccc(OCc2ccccc2)cc1 [Compound 346, 1-(3-{[4-(benzyloxy)phenyl]ethynyl}-4-methoxybenzoyl)-4-(3-chloropyridin-2-yl)piperazine]
- IC50 (rat mGluR5 receptor; [2]): > 10 µM

SMILES: COc1ccc(C(=O)N2CCN(c3ncccc3Cl)CC2)cc1C#Cc1ccc(C(C)=O)cc1 [Compound 347, 1-{4-[(5-{[4-(3-chloropyridin-2-yl)piperazin-1-yl]carbonyl}-2-methoxyphenyl)ethynyl]phenyl}ethanone]
- IC50 (rat mGluR5 receptor; [2]): > 10 µM

SMILES: COc1ccc(C(=O)N2CCN(c3ncccc3Cl)CC2)cc1C#Cc1ccc(OC(F)(F)F)cc1 [Compound 348, 1-(3-chloropyridin-2-yl)-4-(4-methoxy-3-{[4-(trifluoromethoxy)phenyl]ethynyl}benzoyl)piperazine]
- IC50 (rat mGluR5 receptor; [2]): > 10 µM

SMILES: COc1ccc(C(=O)N2CCN(c3ncccc3Cl)CC2)cc1C#Cc1ccc(C(F)(F)F)cc1 [Compound 349, 1-(3-chloropyridin-2-yl)-4-(4-methoxy-3-{[4-(trifluoromethyl)phenyl]ethynyl}benzoyl)piperazine]
- IC50 (rat mGluR5 receptor; [2]): > 10 µM

SMILES: COc1ccc(C(=O)N2CCN(c3ncccc3Cl)CC2)cc1C#Cc1ccc([N+](=O)[O-])cc1 [Compound 350, 1-(3-chloropyridin-2-yl)-4-{4-methoxy-3-[(4-nitrophenyl)ethynyl]benzoyl}piperazine]
- IC50 (rat mGluR5 receptor; [2]): > 10 µM

SMILES: COc1ccc(C(=O)N2CCN(c3ncccc3Cl)CC2)cc1C#Cc1ccccc1F [Compound 351, 1-(3-chloropyridin-2-yl)-4-{3-[(2-fluorophenyl)ethynyl]-4-methoxybenzoyl}piperazine]
- Ki (rat mGluR5 receptor; [1]): 4.3 µM

SMILES: COc1ccc(C(=O)N2CCN(c3ncccc3Cl)CC2)cc1C#Cc1ccc(Cl)cc1 [Compound 352, 1-{3-[(4-chlorophenyl)ethynyl]-4-methoxybenzoyl}-4-(3-chloropyridin-2-yl)piperazine]
- Ki (rat mGluR5 receptor; [1]): 3.19 µM

SMILES: COc1ccc(C(=O)N2CCN(c3ncccn3)CC2)cc1C#Cc1ccccn1 [Compound 353, 2-{4-[4-methoxy-3-(pyridin-2-ylethynyl)benzoyl]piperazin-1-yl}pyrimidine]
- IC50 (mGluR5): 0.072 µM

SMILES: COc1ccc(C(=O)N2CCN(c3ncccn3)CC2)cc1C#Cc1cccnc1 [Compound 354, 2-{4-[4-methoxy-3-(pyridin-3-ylethynyl)benzoyl]piperazin-1-yl}pyrimidine]
- Ki (rat mGluR5 receptor; [1]): 4.97 µM

SMILES: COc1ccc(C(=O)N2CCN(c3ncccn3)CC2)cc1C#Cc1ccncc1 [Compound 355, 2-{4-[4-methoxy-3-(pyridin-4-ylethynyl)benzoyl]piperazin-1-yl}pyrimidine]
- Ki (rat mGluR5 receptor; [1]): 1.57 µM

SMILES: COc1ccc(C(=O)N2CCN(c3ncccn3)CC2)cc1C#Cc1cccc(OC(F)(F)F)c1 [Compound 356, 2-[4-(4-methoxy-3-{[3-(trifluoromethoxy)phenyl]ethynyl}benzoyl)piperazin-1-yl]pyrimidine]
- Ki (rat mGluR5 receptor; [1]): 0.29 µM

SMILES: COc1ccc(C(=O)N2CCN(c3ncccn3)CC2)cc1C#Cc1cccc([N+](=O)[O-])c1 [Compound 357, 2-(4-{4-methoxy-3-[(3-nitrophenyl)ethynyl]benzoyl}piperazin-1-yl)pyrimidine]
- Ki (rat mGluR5 receptor; [1]): 0.239 µM

SMILES: COc1ccc(C(=O)N2CCN(c3ncccn3)CC2)cc1C#Cc1ccc(OCc2ccccc2)cc1 [Compound 358, 2-[4-(3-{[4-(benzyloxy)phenyl]ethynyl}-4-methoxybenzoyl)piperazin-1-yl]pyrimidine]
- IC50 (rat mGluR5 receptor; [2]): > 10 µM

SMILES: COc1ccc(C(=O)N2CCN(c3ncccn3)CC2)cc1C#Cc1ccccc1F [Compound 359, 2-(4-{3-[(2-fluorophenyl)ethynyl]-4-methoxybenzoyl}piperazin-1-yl)pyrimidine]
- Ki (rat mGluR5 receptor; [1]): 0.287 µM

SMILES: COc1ccc(C(=O)N2CCN(c3ncccn3)CC2)cc1C#Cc1ccccc1Cl [Compound 360, 2-(4-{3-[(2-chlorophenyl)ethynyl]-4-methoxybenzoyl}piperazin-1-yl)pyrimidine]
- Ki (rat mGluR5 receptor; [1]): 4.5 µM

SMILES: COc1ccc(C(=O)N2CCN(c3ncccn3)CC2)cc1C#Cc1ccc(Cl)cc1 [Compound 363, 2-(4-{3-[(4-chlorophenyl)ethynyl]-4-methoxybenzoyl}piperazin-1-yl)pyrimidine]
- Ki (rat mGluR5 receptor; [1]): 0.891 µM

SMILES: COc1ccc(C(=O)N2CCN(c3ncccn3)CC2)cc1C#Cc1cccc(OC(F)F)c1 [Compound 364, 2-[4-(3-{[3-(difluoromethoxy)phenyl]ethynyl}-4-methoxybenzoyl)piperazin-1-yl] pyrimidine]
- Ki (rat mGluR5 receptor; [1]): 0.23 µM

SMILES: COc1nc(N2CCN(C(=O)c3ccc(C(F)(F)F)c(C#Cc4ccccn4)c3)CC2)ncc1Br [Compound 365, 5-bromo-4-methoxy-2-(4-{[3-(pyridin-2-ylethynyl)-4-(trifluoromethyl)phenyl]carbonyl}piperazin-1-yl)pyrimidine]
- IC50 (rat mGluR5 receptor; [3]): > 10 µM

SMILES: N#Cc1nccnc1N1CCN(C(=O)c2ccc(C(F)(F)F)c(C#Cc3ccccn3)c2)CC1 [Compound 366, 3-(4-{[3-(pyridin-2-ylethynyl)-4-(trifluoromethyl)phenyl]carbonyl}piperazin-1-yl) pyrazine-2-carbonitrile]
- Ki (rat mGluR5 receptor; [4]): 0.459 µM

SMILES: O=C(c1ccc(C(F)(F)F)c(C#Cc2ccccn2)c1)N1CCN(c2ncc(Cl)cc2Cl)CC1 [Compound 368, 1-(3,5-dichloropyridin-2-yl)-4-{[3-(pyridin-2-ylethynyl)-4-(trifluoromethyl)phenyl]carbonyl}piperazine]
- Ki (rat mGluR5 receptor; [4]): 2.92 µM

SMILES: O=C(c1ccc(C(F)(F)F)c(C#Cc2ccccn2)c1)N1CCN(c2ncccn2)CC1 [Compound 370, 2-(4-{[3-(pyridin-2-ylethynyl)-4-(trifluoromethyl)phenyl]carbonyl}piperazin-1-yl)pyrimidine]
- Ki (rat mGluR5 receptor; [4]): 0.164 µM

SMILES: O=C(c1ccc(C(F)(F)F)c(C#Cc2ccccn2)c1)N1CCN(c2ncccc2Cl)CC1 [Compound 371, 1-(3-chloropyridin-2-yl)-4-{[3-(pyridin-2-ylethynyl)-4-(trifluoromethyl)phenyl]carbonyl}piperazine]
- Ki (rat mGluR5 receptor; [4]): 1 µM

SMILES: Cc1ccc(N2CCN(C(=O)c3ccc(C(F)(F)F)c(C#Cc4ccccn4)c3)CC2)nc1 [Compound 372, 1-(5-methylpyridin-2-yl)-4-{[3-(pyridin-2-ylethynyl)-4-(trifluoromethyl)phenyl]carbonyl}piperazine]
- Ki (rat mGluR5 receptor; [4]): 0.292 µM

SMILES: O=C(c1ccc(C(F)(F)F)c(C#Cc2ccccn2)c1)N1CCN(Cc2cccc(F)c2)CC1 [Compound 376, 1-(3-fluorobenzyl)-4-{[3-(pyridin-2-ylethynyl)-4-(trifluoromethyl)phenyl]carbonyl}piperazine]
- Ki (rat mGluR5 receptor; [4]): 0.811 µM

SMILES: O=C(c1ccc(C(F)(F)F)c(C#Cc2ccccn2)c1)N1CCN(c2nc3ccccc3s2)CC1 [Compound 377, 2-(4-{[3-(pyridin-2-ylethynyl)-4-(trifluoromethyl)phenyl]carbonyl}piperazin-1-yl)-1,3-benzothiazole]
- IC50 (rat mGluR5 receptor; [3]): > 10 µM

SMILES: O=C(c1ccc(C(F)(F)F)c(C#Cc2ccccn2)c1)N1CCN(c2ccc(C(F)(F)F)cn2)CC1 [Compound 379, 1-{[3-(pyridin-2-ylethynyl)-4-(trifluoromethyl)phenyl]carbonyl}-4-[5-(trifluoromethyl)pyridin-2-yl]piperazine]
- Ki (rat mGluR5 receptor; [4]): 3.13 µM

SMILES: Cc1cccc(N2CCN(C(=O)c3ccc(C(F)(F)F)c(C#Cc4ccccn4)c3)CC2)n1 [Compound 380, 1-(6-methylpyridin-2-yl)-4-{[3-(pyridin-2-ylethynyl)-4-(trifluoromethyl)phenyl]carbonyl}piperazine]
- Ki (rat mGluR5 receptor; [4]): 0.352 µM

SMILES: O=C(c1ccc(C(F)(F)F)c(C#Cc2ccccn2)c1)N1CCN(c2cnccn2)CC1 [Compound 381, 2-(4-{[3-(pyridin-2-ylethynyl)-4-(trifluoromethyl)phenyl]carbonyl}piperazin-1-yl)pyrazine]
- Ki (rat mGluR5 receptor; [4]): 0.162 µM

SMILES: O=C(c1ccc(Cl)c(C#Cc2ccccn2)c1)N1CCN(c2cccc(C(F)(F)F)c2)CC1 [Compound 392, 1-[4-chloro-3-(pyridin-2-ylethynyl)benzoyl]-4-[3-(trifluoromethyl)phenyl]piperazine]
- Ki (rat mGluR5 receptor; [4]): 0.12 µM

From patent US20090325964A1, “Piperazine Metabotropic Glutamate Receptor 5 (MGLUR5) Negative Allosteric Modulators For Anxiety/Depression” (Wyeth, priority 2008, published 2009)
